Reference: patent publication US11613531B2, “Inhibitors of RHO associated coiled-coil containing protein kinase” (Kadmon Corporation, LLC, priority 2017, dated 2023)
Like-named read-outs stand apart in the source and are kept apart here.

Assays:
[1] = test system: ppMlc (T18/S19) levels in A7R5 cells; assay: A7R5 in-cell ELISA (pMLC); assay type: cell-based, Rat; conditions: Rattus norvegicus, A7R5, A7R5 cells; for inhibition at 10 µM: 10 μM compound; for inhibition at 10 µM / inhibition at 1 µM: read-out: pMLC % inh A7R5 @ [conc]; for IC50: ppMlc (T18/S19); for inhibition at 1 µM: 1 μM compound
How it was run: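 A7R5 rat aortic smooth muscle cells seeded 24 h, then treated 90 min with a 9-point 2-fold compound dilution series. Fixed cells probed for ppMlc (T18/S19) by colorimetric in-cell ELISA; cellular IC50 from nonlinear regression curve fit.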

[2] = molecular target: Recombinant ROCK2 (amino acids 1-552) (Homo sapiens (Human), UniProt O75116); assay: Z′-Lyte kinase assay, ROCK2; assay type: biochemical; conditions: for inhibition at 1 µM: 1 μM compound, read-out: ROCK2 % inh. @ [conc]
Sequence of Recombinant ROCK2 (amino acids 1-552) (O75116 1-552): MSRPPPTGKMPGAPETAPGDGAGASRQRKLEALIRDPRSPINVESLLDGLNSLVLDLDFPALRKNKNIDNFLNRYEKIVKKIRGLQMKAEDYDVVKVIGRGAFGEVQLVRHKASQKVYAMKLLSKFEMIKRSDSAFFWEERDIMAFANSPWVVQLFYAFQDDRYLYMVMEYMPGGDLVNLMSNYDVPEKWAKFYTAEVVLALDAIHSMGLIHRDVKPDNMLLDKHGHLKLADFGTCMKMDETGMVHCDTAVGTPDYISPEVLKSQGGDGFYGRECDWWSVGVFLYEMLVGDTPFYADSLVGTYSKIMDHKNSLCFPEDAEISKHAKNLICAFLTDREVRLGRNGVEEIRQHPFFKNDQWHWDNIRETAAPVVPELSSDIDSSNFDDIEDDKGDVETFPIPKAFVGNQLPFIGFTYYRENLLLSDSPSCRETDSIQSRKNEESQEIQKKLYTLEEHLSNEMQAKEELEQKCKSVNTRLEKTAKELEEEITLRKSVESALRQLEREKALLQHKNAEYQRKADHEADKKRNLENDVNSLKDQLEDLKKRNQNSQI
Protocol: Determination of Compound's ROCK Inhibitory Activity In Vitro (Z'Lyte Assay).
Recombinant ROCK1 (amino acids 1-535) and ROCK2 (amino acids 1-552) proteins were purchased from ThermoFisher Scientific. Compound's activities were measured by Z′-lyte kinase kit (ThermoFisher Scientific) and IC50 was calculated
In vitro activities for the compounds were measured with Z′-lyte kinase kit (ThermoFisher Scientific). The percent inhibition rate was calculated by normalizing the kinase activity value obtained with 1 μM compound treatment against DMSO control value and then applied to the formula, [1-(compound/DMSO)]×100%. IC50s were calculated using the nonlinear regression curve fit function of the GraphPad Prism software with kinase activities data measured with 9 points 2-fold serial dilution of compounds treatment. In cell pMLC IC50s were calculated with data obtained from A7R5 cell experiments. A7R5 cells were treated with 9 points 2-fold serial dilution of compounds and ppMlc (T18/S19) levels were determined to calculate cellular IC50 values of the compounds using the nonlinear regression curve fit function of the GraphPad Prism software. NIH3T3 cells stably expressing ACTA2-promoter-driven-luciferase were applied to measure ROCK compounds functional IC50s in cells. Cells were plated in 96 well plates to confluence and treated with 9 points serial dilution of compounds in combination with TGFβ1 for 24 hr. Luciferase activities were measured and compound's IC50s were calculated using the nonlinear regression curve fit function of the GraphPad Prism software.

[3] = 9 points 2-fold serial dilution

SMILES | inhibition at 10 µM [1] | IC50 [1] | inhibition at 1 µM [2] | inhibition at 1 µM [1] | IC50 [2] | IC50 [2, 3]
Cc1nc(N2CCCNC(C)C2)nc(Nc2ccc3[nH]ncc3c2)c1C (stereo not shown) [Example 22, N-(5,6-dimethyl-2-(3-methyl-1,4-diazepan-1-yl)pyrimidin-4-yl)-1H-indazol-5-amine] | 54.2% | 1390 nM | 76.5% |  |  | 
CCC1CCN(c2nc(C)c(C)c(Nc3ccc4[nH]ncc4c3)n2)CCN1 (stereo not shown) [Example 23, N-(2-(5-ethyl-1,4-diazepan-1-yl)-5,6-dimethylpyrimidin-4-yl)-1H-indazol-5-amine] | 46.4% |  | 29.5% |  |  | 
Cc1nc(N2CCNC(C)CC2)nc(Nc2ccc3[nH]ncc3c2)c1C (stereo not shown) [Example 25, N-(5,6-dimethyl-2-(5-methyl-1,4-diazepan-1-yl)pyrimidin-4-yl)-1H-indazol-5-amine] | 48.3% |  | 52.9% |  |  | 
CCC1CN(c2nc(C)c(C)c(Nc3ccc4[nH]ncc4c3)n2)CCCN1 (stereo not shown) [Example 26, N-(2-(3-ethyl-1,4-diazepan-1-yl)-5,6-dimethylpyrimidin-4-yl)-1H-indazol-5-amine] | 39.9% |  | 33.5% |  |  | 
Cc1nc(N2CCNCC2C)nc(Nc2ccc3[nH]ncc3c2)c1C (stereo not shown) [Example 27, N-(5,6-dimethyl-2-(2-methylpiperazin-1-yl)pyrimidin-4-yl)-1H-indazol-5-amine] |  |  | 71.3% | 16.8% |  | 
Cc1nc(N2CCNCC(C)C2)nc(Nc2ccc3[nH]ncc3c2)c1C (stereo not shown) [Example 28, N-(5,6-dimethyl-2-(6-methyl-1,4-diazepan-1-yl)pyrimidin-4-yl)-1H-indazol-5-amine] |  |  | 45% | 11.8% |  | 
COc1cnc(N2CCNCC2)nc1Nc1ccc2[nH]ncc2c1 [Example 30, N-(5-methoxy-2-(piperazin-1-yl)pyrimidin-4-yl)-1H-indazol-5-amine] | 56.4% | 1120 nM | 90.6% |  |  | 
COc1cnc(N2CCNC(C)C2)nc1Nc1ccc2[nH]ncc2c1 (stereo not shown) [Example 31, N-(5-methoxy-2-(3-methylpiperazin-1-yl)pyrimidin-4-yl)-1H-indazol-5-amine] | 58% | 1850 nM | 78.1% |  |  | 
COc1cnc(N2CCCNC(C(C)C)C2)nc1Nc1ccc2[nH]ncc2c1 (stereo not shown) [Example 32, N-(2-(3-isopropyl-1,4-diazepan-1-yl)-5-methoxypyrimidin-4-yl)-1H-indazol-5-amine] | 53.7% | 3950 nM | 44.6% |  |  | 
c1cc(Nc2ccc(-c3cn[nH]c3)cc2)nc(N2CCNCC2)n1 [Example 38, N-(4-(1H-pyrazol-4-yl)phenyl)-2-(piperazin-1-yl)pyrimidin-4-amine] |  |  | 63.1% | 9.2% | 451 nM | 
c1cc(Nc2ccc(-c3cnn[nH]3)cc2)nc(N2CCNCC2)n1 [Example 41, N-(4-(1H-1,2,3-triazol-5-yl)phenyl)-2-(piperazin-1-yl)pyrimidin-4-amine] | 9.96% |  |  |  |  | > 10000 nM
c1cc(Nc2ccc(-c3cn[nH]c3)cc2)nc(N2CCCNCC2)n1 [Example 44, N-(4-(1H-pyrazol-4-yl)phenyl)-2-(1,4-diazepan-1-yl)pyrimidin-4-amine] |  |  | 72.7% | 13.2% | 220 nM | 
COc1cnc(N2CCNC(C(C)C)CC2)nc1Nc1ccc2[nH]ncc2c1 (stereo not shown) [Example 47, N-(2-(5-isopropyl-1,4-diazepan-1-yl)-5-methoxypyrimidin-4-yl)-1H-indazol-5-amine] | 45.6% |  | 33.1% |  |  | 
CCC1CN(c2ncc(OC)c(Nc3ccc4[nH]ncc4c3)n2)CCN1 (stereo not shown) [Example 49, N-(2-(3-ethylpiperazin-1-yl)-5-methoxypyrimidin-4-yl)-1H-indazol-5-amine] | 46.3% |  | 50.6% |  |  | 
COc1cnc(N2CCNC(C(C)C)C2)nc1Nc1ccc2[nH]ncc2c1 (stereo not shown) [Example 51, N-(2-(3-isopropylpiperazin-1-yl)-5-methoxypyrimidin-4-yl)-1H-indazol-5-amine] | 39.4% |  | 29.3% |  |  | 
COc1cnc(N2CCNC(C)CC2)nc1Nc1ccc2[nH]ncc2c1 (stereo not shown) [Example 53, N-(5-methoxy-2-(5-methyl-1,4-diazepan-1-yl)pyrimidin-4-yl)-1H-indazol-5-amine] | 51.3% | 1720 nM | 74.5% |  |  | 
CCC1CCN(c2ncc(OC)c(Nc3ccc4[nH]ncc4c3)n2)CCN1 (stereo not shown) [Example 54, N-(2-(5-ethyl-1,4-diazepan-1-yl)-5-methoxypyrimidin-4-yl)-1H-indazol-5-amine] | 50.1% | 1700 nM | 58.5% |  |  | 
COc1cnc(N2CCCNC(C)C2)nc1Nc1ccc2[nH]ncc2c1 (stereo not shown) [Example 55, N-(5-methoxy-2-(3-methyl-1,4-diazepan-1-yl)pyrimidin-4-yl)-1H-indazol-5-amine] | 52.2% | 998 nM | 83.3% |  |  | 
COc1cnc(N2CCNCC(C)C2)nc1Nc1ccc2[nH]ncc2c1 (stereo not shown) [Example 56, N-(5-methoxy-2-(6-methyl-1,4-diazepan-1-yl)pyrimidin-4-yl)-1H-indazol-5-amine] |  |  | 87.1% | 29% |  | 
c1cc(Nc2ccc3[nH]ncc3c2)nc(N2CCNC3(CC3)C2)n1 [Example 66, N-(2-(4,7-diazaspiro[2.5]octan-7-yl)pyrimidin-4-yl)-1H-indazol-5-amine] |  |  | 86.3% | 17.5% |  | 380 nM
c1cc(Nc2ccc3[nH]ncc3c2)nc(N2CC3CCC2CN3)n1 (stereo not shown) [Example 67, N-(2-(2,5-diazabicyclo[2.2.2]octan-2-yl)pyrimidin-4-yl)-1H-indazol-5-amine] |  | 1360 nM | 99.2% | 31.4% |  | 45 nM
CC1CN(c2nccc(Nc3ccc4[nH]ncc4c3)n2)C(C)CN1 (stereo not shown) [Example 68, N-(2-(2,5-dimethylpiperazin-1-yl)pyrimidin-4-yl)-1H-indazol-5-amine] |  | 1010 nM |  | 35.4% |  | 294 nM
c1cc(Nc2ccc3[nH]ncc3c2)nc(N2CC3CNC(C3)C2)n1 (stereo not shown) [Example 78, N-(2-(3,6-diazabicyclo[3.2.1]octan-3-yl)pyrimidin-4-yl)-1H-indazol-5-amine] |  |  | 99.1% | 20.3% |  | 
c1cc(Nc2ccc3[nH]ncc3c2)nc(N2CCN3CCNCC3C2)n1 (stereo not shown) [Example 84, N-(2-(octahydro-2H-pyrazino[1,2-a]pyrazin-2-yl)pyrimidin-4-yl)-1H-indazol-5-amine] |  |  | 22.2% | 0.7% |  | 
c1cc(Nc2ccc3[nH]ncc3c2)nc(N2CCC3CNCC3CC2)n1 (stereo not shown) [Example 85, N-(2-(octahydropyrrolo[3,4-d]azepin-6(1H)-yl)pyrimidin-4-yl)-1H-indazol-5-amine] |  |  | 98% | 17.3% |  | 
c1ccc2c(c1)N(c1nccc(Nc3ccc4[nH]ncc4c3)n1)CC21CCNCC1 [Example 87, N-(2-(spiro[indoline-3,4′-piperidin]-1-yl)pyrimidin-4-yl)-1H-indazol-5-amine] |  |  | 7.6% | 5.8% |  | 
c1ccc2c(c1)C(C1CCNCC1)CN2c1nccc(Nc2ccc3[nH]ncc3c2)n1 (stereo not shown) [Example 88, N-(2-(3-(piperidin-4-yl)indolin-1-yl)pyrimidin-4-yl)-1H-indazol-5-amine] |  |  | 13.8% | 5.6% |  | 
